The values that follow come from US6020366A, “Butyric acid matrix metalloproteinase inhibitors” (priority 1998, dated 2000).

As a reminder, the pIC50 is the IC50 on a negative log10 scale, so that one unit is a factor of ten.

pIC50: −log10 of the molar value. Where two headings read alike, the source gives them in different places.

Common to all, as to assay type: biochemical
The target in test [1] is T1, MMP-2 (Gelatinase A) (Homo sapiens, UniProt P08253).
T1 sequence (P08253 110-660): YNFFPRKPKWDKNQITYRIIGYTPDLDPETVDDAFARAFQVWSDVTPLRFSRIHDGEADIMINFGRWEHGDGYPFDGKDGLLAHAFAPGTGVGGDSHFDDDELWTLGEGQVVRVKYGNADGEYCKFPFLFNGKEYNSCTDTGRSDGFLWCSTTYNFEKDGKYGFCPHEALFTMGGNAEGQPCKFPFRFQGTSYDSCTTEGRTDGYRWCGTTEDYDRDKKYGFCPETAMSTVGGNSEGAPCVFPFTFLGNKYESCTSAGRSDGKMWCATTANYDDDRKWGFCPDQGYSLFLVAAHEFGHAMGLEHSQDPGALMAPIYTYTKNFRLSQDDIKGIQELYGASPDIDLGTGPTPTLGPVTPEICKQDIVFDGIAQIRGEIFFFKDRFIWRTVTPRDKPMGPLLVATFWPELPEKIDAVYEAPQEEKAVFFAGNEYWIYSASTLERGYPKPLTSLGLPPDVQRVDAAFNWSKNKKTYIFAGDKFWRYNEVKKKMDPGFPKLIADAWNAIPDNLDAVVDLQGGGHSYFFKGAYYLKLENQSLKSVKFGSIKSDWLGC
In words: inhibition of MMP-2 hydrolysis of thiopeptolide substrate.

Test [2] addresses MMP-3 (stromelysin) (Homo sapiens, UniProt P08254). The test can be described thus: inhibition of MMP-3 hydrolysis of thiopeptolide substrate. From the text: The assays measure the amount by which a test compound reduces the hydrolysis of a thiopeptolide substrate caused by a matrix metalloproteinase enzyme. Such assays are described in detail by Ye, et al., in Biochemistry, 1992;31(45):11231-11235).
Thiopeptolide substrates show virtually no decomposition or hydrolysis in the absence of a matrix metalloproteinase enzyme. A typical thiopeptolide substrate commonly utilized for assays is Ac-Pro-Leu-Gly-thioester-Len-Len-Gly-O Et. […] Assays are carried out with and without matrix metalloproteinase inhibitor compounds, and the amount of hydrolysis is compared for a determination of inhibitory activity of the test compounds.
In the table, MMP-1 refers to interstitial collagenase; MMP-2 refers to Gelatinase A; MMP-3 refers to stromelysin; MMP-7 refers to matrilysin; and MMP-13 refers to Collagenase 3.

Test [3] has as its target MMP-13 (Collagenase 3) (Homo sapiens, UniProt P45452). The test can be described thus: inhibition of MMP-13 hydrolysis of thiopeptolide substrate. From the text: The invention compounds have been evaluated in standard in vitro assays and shown to be potent inhibitors of several matrix metalloproteinase enzymes.
The mark [4] stands for this setting: thiopeptolide substrate, pH 6.0, 22° C., read-out: (IC50) MMP-2.
[5] abbreviates: thiopeptolide substrate, pH 6.0, 22° C., read-out: (IC50) MMP-3.
Setting [6] is: thiopeptolide substrate, pH 6.0, 22° C., read-out: (IC50) MMP-13.

Chain of MMP-3 (stromelysin) (P08254 100-477): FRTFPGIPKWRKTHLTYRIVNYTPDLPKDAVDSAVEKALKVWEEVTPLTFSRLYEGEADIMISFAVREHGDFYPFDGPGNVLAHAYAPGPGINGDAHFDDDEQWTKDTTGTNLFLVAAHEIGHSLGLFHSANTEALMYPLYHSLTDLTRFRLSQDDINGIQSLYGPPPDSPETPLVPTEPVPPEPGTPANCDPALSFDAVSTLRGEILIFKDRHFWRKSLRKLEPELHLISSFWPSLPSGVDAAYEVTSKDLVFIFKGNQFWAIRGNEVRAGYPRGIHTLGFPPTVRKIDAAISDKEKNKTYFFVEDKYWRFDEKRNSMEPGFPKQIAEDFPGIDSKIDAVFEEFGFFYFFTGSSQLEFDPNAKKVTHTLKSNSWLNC

Turning to `O=C(C[C@@H](NC(=O)C(F)(F)F)C(=O)O)c1ccc2oc3ccccc3c2c1` [Example 2, (R)-4-Dibenzofuran-2-yl-4-oxo-2-(2,2,2-trifluoroacetylamino)-butyric acid], the pIC50 is 4.36 in test [1] (setting [4]) and 4.11 in test [2] (setting [5]).
Consider `CC(=O)N[C@@H](CC(=O)c1ccc2oc3ccccc3c2c1)C(=O)O` [Example 4, (S)-2-Acetylamino-4-dibenzofuran-2-yl-4-oxo-butyric acid], for which the pIC50 in test [2] (setting [5]) was 5.80.
With `CC(C)c1cccc(C(C)C)c1NC(=O)N[C@@H](CC(=O)c1ccc2oc3ccccc3c2c1)C(=O)O` [Example 5, (S)-4-Dibenzofuran-2-yl-2-[3-(2,6-diisopropyl-phenyl)-ureido]-4-oxo-butyric acid], the pIC50 in test [1] (setting [4]) is 6.49; in test [2] (setting [5]) it was 5.77.
Turning to `O=C(C[C@H](NC(=O)c1ccccc1)C(=O)O)c1ccc2oc3ccccc3c2c1` [Example 6, (S)-2-Benzoylamino-4-dibenzofuran-2-yl-4-oxo-butyric acid], the figures for the negative-log IC50 (pIC50) in test [1] (setting [4]) and in test [2] (setting [5]) were 6.74 and 6.04, respectively.
With `O=C(CCc1ccccc1)N[C@@H](CC(=O)c1ccc2oc3ccccc3c2c1)C(=O)O` [Example 8, (S)-4-Dibenzofuran-2-yl-4-oxo-2-(3-phenylpropionylamino)-butyric acid], the pIC50 was 5.89 in test [3] (setting [6]), 7.17 in test [1] (setting [4]) and 6.54 in test [2] (setting [5]).
For `O=C(CCCCCCc1ccccc1)N[C@@H](CC(=O)c1ccc2oc3ccccc3c2c1)C(=O)O` [Example 9, (S)-4-Dibenzofuran-2-yl-4-oxo-2-(7-phenylheptanoylamino)-butyric acid], the pIC50 in test [1] (setting [4]) is 6.29; in test [2] (setting [5]), 5.41.
Take `O=C(C[C@H](NC(=O)c1ccc(-c2ccccc2)cc1)C(=O)O)c1ccc2oc3ccccc3c2c1` [Example 10, (S)-2-[(Biphenyl-4-carbonyl)-amino]-4-dibenzofuran-2-yl-4-oxo-butyric acid]: the pIC50 in test [1] (setting [4]) was 5.79; in test [2] (setting [5]), 5.03.
Take `CCCCCCCC(=O)N[C@@H](CC(=O)c1ccc2oc3ccccc3c2c1)C(=O)O` [Example 11, (S)-4-Dibenzofuran-2-yl-4-oxo-2-(octanoylamino)-butyric acid]: the pIC50 in test [3] (setting [6]) was 5.17; in test [1] (setting [4]), 6.44; in test [2] (setting [5]), 5.57.
With `CCCCCCCCCCCC(=O)N[C@@H](CC(=O)c1ccc2oc3ccccc3c2c1)C(=O)O` [Example 12, (S)-4-Dibenzofuran-2-yl-4-oxo-2-(dodecanoylamino)-butyric acid], the values for the pIC50 in test [1] (setting [4]) and in test [2] (setting [5]) were 5.06 and 5.40, respectively.
With `CS(=O)(=O)N[C@@H](CC(=O)c1ccc2oc3ccccc3c2c1)C(=O)O` [Example 13, (S)-4-Dibenzofuran-2-yl-4-oxo-2-methanesulfonylamino-butyric acid], the pIC50 in test [1] (setting [4]) was 6.55; in test [2] (setting [5]) it was 5.04.
Turning to `O=C(C[C@H](NC(=O)C(F)(F)F)C(=O)O)c1ccc2c(c1)Cc1ccccc1-2` [Example 15, (S)-4-(9H-fluoren-2-yl)-4-oxo-2-(2,2,2-trifluoroacetylamino)-butyric acid], the pIC50 was 4.90 in test [1] (setting [4]) and 4.12 in test [2] (setting [5]).
For the compound `O=C(O)[C@H](CC(=NO)c1ccc2oc3ccccc3c2c1)NC(=O)C(F)(F)F` [Example 16, (S)-4-Dibenzofuran-2-yl-4-hydroxyimino-2-(2,2,2-trifluoroacetylamino)-butyric acid], the pIC50 in test [3] (setting [6]) is 5.62; in test [1] (setting [4]), 6.14; in test [2] (setting [5]), 5.18.
`O=C(CC(NC(=O)C(c1ccccc1)c1ccccc1)C(=O)O)c1ccc2oc3ccccc3c2c1` (stereo not drawn) [Example 18, 4-Dibenzofuran-2-yl-2-diphenylacetylamino-4-oxo-butyric acid]: the results for the pIC50 in test [3] (setting [6]), in test [1] (setting [4]) and in test [2] (setting [5]) were 5.96, 7.00 and 6.44, respectively.
With `O=C(COc1ccc(Cl)cc1)NC(CC(=O)c1ccc2oc3ccccc3c2c1)C(=O)O` (stereo not drawn) [Example 19, 2-[2-(4-Chloro-phenoxy)-acetylamino]-4-dibenzofuran-2-yl-4-oxo-butyric acid], the pIC50 in test [3] (setting [6]) was 4.34; in test [1] (setting [4]), 6.19; in test [2] (setting [5]), 5.51.
In the same order, the values of `O=C(CC(NC(=O)c1ccc(Cl)c(Cl)c1)C(=O)O)c1ccc2oc3ccccc3c2c1` (stereo not drawn) [Example 20] are 4.42, 5.89 and 5.15.
In the case of `COc1ccc(CC(=O)NC(CC(=O)c2ccc3oc4ccccc4c3c2)C(=O)O)cc1OC` (stereo not drawn) [Example 21, 4-Dibenzofuran-2-yl-2-[2-(3,4-dimethoxy-phenyl)-acetylamino] -4-oxo-butyric acid], the values for the pIC50 in test [3] (setting [6]), in test [1] (setting [4]) and in test [2] (setting [5]) were 4.80, 6.49 and 5.62, respectively.
For the compound `O=C(CC(NC(=O)c1ccc2ccccc2c1)C(=O)O)c1ccc2oc3ccccc3c2c1` (stereo not drawn) [Example 22, 4-Dibenzofuran-2-yl-2-[(naphthalene-2-carbonyl)-amino] -4-oxo-butyric acid], the pIC50 is 4.55 in test [3] (setting [6]), 5.77 in test [1] (setting [4]) and 5.16 in test [2] (setting [5]).
In the same order, the values of `CCCC(C)(C)C(=O)NC(CC(=O)c1ccc2oc3ccccc3c2c1)C(=O)O` (stereo not drawn) [Example 23, 4-Dibenzofuran-2-yl-2-(2,2-dimethyl-pentanoylamino)-4-oxo-butyric acid] are 5.25, 6.77 and 6.12.
As to `O=C(CC(NC(=O)c1ccncc1)C(=O)O)c1ccc2oc3ccccc3c2c1` (stereo not drawn) [Example 24, 4-Dibenzofuran-2-yl-4-oxo-2-[(pyridine-4-carbonyl)-amino]-butyric acid], the negative logarithm of the IC50 (pIC50) in test [3] (setting [6]) is 4.39; in test [1] (setting [4]) it was 5.49; in test [2] (setting [5]), 4.89.
In the same order, the values of `O=C(C=Cc1ccccc1)NC(CC(=O)c1ccc2oc3ccccc3c2c1)C(=O)O` (stereo not drawn) [Example 25, 4-Dibenzofuran-2-yl-4-oxo-2-(3-phenyl-acryloylamino)-butyric acid] are 5.08, 6.96 and 6.10.
On to `O=C(CC(NC(=O)C12CC3CC(CC(C3)C1)C2)C(=O)O)c1ccc2oc3ccccc3c2c1` (stereo not drawn) [Example 26, 2-[(Adamantane-1-carbonyl)-amino]-4-dibenzofuran-2-yl-4-oxo-butyric acid], for which the pIC50 in test [3] (setting [6]) was 4.40; in test [1] (setting [4]), 5.68; in test [2] (setting [5]), 5.04.
As for `O=C(CC(NC(=O)C(F)(F)C(F)(F)C(F)(F)C(F)(F)C(F)(F)C(F)(F)C(F)(F)F)C(=O)O)c1ccc2oc3ccccc3c2c1` (stereo not drawn) [Example 27, 4-Dibenzofuran-2-yl-4-oxo-2-(2,2,3,3,4,4,5,5,6,6,7,7,8,8,8-pentadecafluoro-octanoylamino)-butyric acid], the pIC50 was 4.11 in test [3], 5.34 in test [1] and 4.74 in test [2].
For the compound `Cc1ccc(C(=O)NC(CC(=O)c2ccc3oc4ccccc4c3c2)C(=O)O)cc1` (stereo not drawn) [Example 29, 4-Dibenzofuran-2-yl-2-(4-methyl-benzoylamino)-4-oxo-butyric acid], the pIC50 was 5.28 in test [3] (setting [6]) and 6.41 in test [2] (setting [5]).
Regarding `O=C(CC(NC(=O)c1c(F)c(F)c(F)c(F)c1F)C(=O)O)c1ccc2oc3ccccc3c2c1` (stereo not drawn) [Example 40, 4-Dibenzofuran-2-yl-4-oxo-2-(2,3,4,5,6-pentafluoro-benzoylamino)-butyric acid], the pIC50 in test [1] (setting [4]) was 5.28; in test [2] (setting [5]), 4.55.
